Source: patent US20020054880A1, “Anti-inflammatory, tolerogenic and immunoinhibiting properties of carbohydrate binding-peptides” (priority 1992, published 2002)
Entries after “also recorded” stand apart in the source; their conditions may differ.

Legend:
[1] = target: T1, ACS2P1-biotin binding to fetuin (Bos taurus, UniProt P12763); assay: biochemical; details: peptide μM: ACS2P1 4.1, S2P2 42.5, SPYGRC 5520, S2P3 22.4, S2P4 6.0, S2P6 319, S3P1 1142, S3P2 934, S3P3 16.1, S3P4 6.4, S3P5 22.5; ACS2P1-biotin 0.1 μg; − inhibition, + enhancement
T1 construct: purchased Sigma Chemical Company
T1 sequence (P12763 19-359): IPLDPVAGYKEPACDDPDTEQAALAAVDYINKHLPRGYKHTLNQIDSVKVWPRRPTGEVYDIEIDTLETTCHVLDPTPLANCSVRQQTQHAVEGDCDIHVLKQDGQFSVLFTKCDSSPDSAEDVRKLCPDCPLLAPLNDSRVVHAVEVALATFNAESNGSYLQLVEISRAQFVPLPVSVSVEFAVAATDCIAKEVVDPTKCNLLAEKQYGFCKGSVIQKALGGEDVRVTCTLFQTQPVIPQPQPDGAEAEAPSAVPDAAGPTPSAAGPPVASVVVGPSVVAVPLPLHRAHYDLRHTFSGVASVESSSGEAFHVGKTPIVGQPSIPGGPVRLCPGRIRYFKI

[2] = target: T2, MAL-biotin binding to fetuin (Bos taurus, UniProt P12763); assay: MAL-biotin binding to fetuin, binding inhibition assay; parameters: species or system Maackia amurensis; details: for Percent Changes in Binding Activity MAL/fetuin: peptide mg/mL: S2PL 1.2, ACS2P1 1.0, S2(14-2.3) 1.0, S2P2 1.1, S2P3 0.51, S2P4 0.98, S2P6 0.85, S3P1 3.2, S3P2 3.1, S3P3 4.5, S3P4 3.3, S3P5 0.48, S3P9a 1.7, SPYGRC 4.4, S2(WGA) 1.0, WGA (62-73) 1.0, + enhancement, − inhibition
T2 construct: purchased Sigma Chemical Company (fetuin); Boehringer Mannheim (MAL-biotin)
T2 sequence (P12763 19-359): T1 sequence (P12763 19-359)
Description: (§1) Peptides ranging in concentration from 0.5 to 4.5 mg/ml in PBS (40 μl) were added to each well and PT-biotin (10 μl containing 10 ng in PBS) was then added to the microtiter wells. […] Horseradish peroxidase-conjugated avidin (100 μl, 1/3000 dilution in PBST to a concentration of 0.3 μg/ml) was then added to the wells, and the plates were incubated at ambient temperature for 1 hour. […] Color development was recorded at 405 nm using a Titertek Multiskan MC plate reader. […] Binding assays for each peptide were done in duplicate. Binding inhibition experiments utilizing SNA-, WGA-, and MAL-biotin were performed as described above using 10 ng of each biotinylated lectin in PBS.
(§2) Binding assays for each inhibitor concentration were done at least in duplicate, and the average value varied less than 15%.

[3] = target: T3, PT-biotin binding to asialofetuin (Bos taurus, UniProt P12763); assay: PT-biotin binding to asialofetuin, binding inhibition assay; parameters: species or system Bordetella pertussis; details: for Percent Changes in Binding Activity PT/asialo-fetuin: peptide mg/mL: S2PL 1.2, ACS2P1 1.0, S2P2 1.1, S2P3 0.51, S2P4 0.98, S2P6 0.85, S3P1 3.2, S3P2 3.1, S3P3 4.5, S3P4 3.3, S3P5 0.48, SPYGRC 4.4, + enhancement, − inhibition
T3 construct: made in house
T3 sequence (P12763 19-359): T1 sequence (P12763 19-359)
Description: as §1, §2

[4] = target: T4, WGA-biotin binding to fetuin (Bos taurus, UniProt P12763); assay: biochemical; details: for Percent Changes in Binding Activity WGA/fetuin: peptide mg/mL: S2PL 1.2, ACS2P1 1.0, S2(14-2.3) 1.0, S2P2 1.1, S2P3 0.51, S2P4 0.98, S2P6 0.85, S3P1 3.2, S3P2 3.1, S3P3 4.5, S3P4 3.3, S3P5 0.48, SPYGRC 4.4, S2(WGA) 1.0, WGA (62-73) 1.0, + enhancement, − inhibition
T4 sequence (P12763 19-359): T1 sequence (P12763 19-359)
Description: (§3) The solution was removed by aspiration and replaced with 100 μl of 1% BSA in PBS containing 0.05% Tween 20 (PBST). After incubation for 2-4 hours at room temperature, the microtiter wells were washed four times with 300 μl of PBST. Peptides ranging in concentration from 0.5 to 4.5 mg/ml in PBS (40 μl) were added to each well and PT-biotin (10 μl containing 10 ng in PBS) was then added to the microtiter wells. After incubating for 1 hour, the binding reaction was stopped by aspirating the solutions and the plate was washed with PBST (300 μl). Horseradish peroxidase-conjugated avidin (100 μl, 1/3000 dilution in PBST to a concentration of 0.3 μg/ml) was then added to the wells, and the plates were incubated at ambient temperature for 1 hour. After washing the wells as described above, the substrate solution [1 mM ABTS in 5 mM citrate buffer, pH 4.2, containing 0.1% hydrogen peroxide, v/v) was added and the plates were incubated for 30 minutes. Color development was recorded at 405 nm using a Titertek Multiskan MC plate reader. Maximum binding was determined in the absence of peptide, and background binding was measured in wells coated with BSA only. Binding assays for each peptide were done in duplicate. Binding inhibition experiments utilizing SNA-, WGA-, and MAL-biotin were performed as described above using 10 ng of each biotinylated lectin in PBS.

[5] = target: T5, SNA-biotin binding to fetuin (Bos taurus, UniProt P12763); assay: biochemical; details: peptide mg/mL: S2PL 1.2, ACS2P1 1.0, S2(14-2.3) 1.0, S2P2 1.1, S2P3 0.51, S2P4 0.98, S2P6 0.85, S3P1 3.2, S3P2 3.1, S3P3 4.5, S3P4 3.3, S3P5 0.48, S3P9a 1.7, SPYGRC 4.4, S2(WGA) 1.0, WGA (62-73) 1.0; + enhancement, − inhibition
T5 sequence (P12763 19-359): T1 sequence (P12763 19-359)
Description: as §3

[6] = target: T6, ACS2P1-biotin binding to asialofetuin (Bos taurus, UniProt P12763); assay: Screening of S2 and S3 peptides for inhibition of ACS2P1-biotin binding to asialofetuin; details: peptide μM: ACS2P1 4.1, S2P2 42.5, SPYGRC 5520, S2P3 22.4, S2P4 6.0, S2P6 319, S3P1 1142, S3P2 934, S3P3 16.1, S3P4 6.4, S3P5 22.5; ACS2P1-biotin 0.1 μg; − inhibition, + enhancement
T6 construct: made in house
T6 sequence (P12763 19-359): T1 sequence (P12763 19-359)

[7] = target: T7, PT-biotin binding to fetuin (Bos taurus, UniProt P12763); assay: PT-biotin binding to fetuin, binding inhibition assay; parameters: species or system Bordetella pertussis; details: for Percent Changes in Binding Activity PT/fetuin: peptide mg/mL: S2PL 1.2, ACS2P1 1.0, S2(14-2.3) 1.0, S2P2 1.1, S2P3 0.51, S2P4 0.98, S2P6 0.85, S3P1 3.2, S3P2 3.1, S3P3 4.5, S3P4 3.3, S3P5 0.48, S3P9a 1.7, SPYGRC 4.4, S2(WGA) 1.0, WGA (62-73) 1.0, + enhancement, − inhibition
T7 construct: purchased Sigma Chemical Company (fetuin); Connaught Center for Biotechnology Research (PT)
T7 sequence (P12763 19-359): T1 sequence (P12763 19-359)
Description: as §1, §2

## CC[C@H](C)[C@H](NC(=O)[C@H](CS)NC(=O)[C@H](Cc1ccccc1)NC(=O)[C@@H](NC(=O)[C@@H](NC(=O)[C@H](CCCCN)NC(=O)[C@H](CC(C)C)NC(=O)[C@H](CC(=O)O)NC(=O)[C@H](Cc1ccccc1)NC(=O)[C@H](C)NC(=O)CN)[C@@H](C)O)[C@@H](C)O)C(=O)N[C@@H](CCSC)C(=O)N[C@H](C(=O)N[C@H](C(=O)N[C@@H](CCCNC(=N)N)C(=O)N[C@@H](CC(N)=O)C(=O)N[C@H](C(=O)NCC(=O)N[C@@H](CCC(N)=O)C(=O)N1CCC[C@H]1C(=O)N[C@@H](C)C(=O)O)[C@@H](C)O)[C@@H](C)O)[C@@H](C)O [Peptide S2P3]
[1]
  Percent Change in Binding Activity Fetuin: +70 ± 11%
[2]
  IC50: 860 ± 20 µM
  effect on MAL-biotin binding to fetuin, in words: inhibit binding to fetuin of all the biotinylated lectins; also recorded: very active at inhibiting
  Percent Changes in Binding Activity MAL/fetuin: −18 ± 2%
[3]
  Percent Changes in Binding Activity PT/asialo-fetuin: −15(1) Percent
[4]
  IC50: 140 ± 30 µM
  Percent Changes in Binding Activity WGA/fetuin: −56 ± 8%
[5]
  Percent Changes in Binding Activity SNA/fetuin: −15 ± 4%
[6]
  Percent Change in Binding Activity Asialofetuin: +15 ± 11%
[7]
  IC50: 190 ± 90 µM
  effect on PT-biotin binding to fetuin, in words: inhibit binding to fetuin of all the biotinylated lectins
  Percent Changes in Binding Activity PT/fetuin: −21 ± 0%

## CC[C@H](C)[C@H](NC(=O)[C@@H](NC(=O)[C@@H]1CCCN1C(=O)[C@H](CCC(N)=O)NC(=O)CNC(=O)[C@H](CO)NC(=O)[C@H](CCCNC(=N)N)NC(=O)[C@@H](NC(=O)[C@@H](N)Cc1ccccc1)C(C)C)C(C)C)C(=O)NCC(=O)N[C@@H](C)C(=O)N[C@@H](CS)C(=O)N[C@H](C(=O)N[C@@H](CO)C(=O)N1CCC[C@H]1C(=O)N[C@@H](Cc1ccc(O)cc1)C(=O)N[C@@H](CC(=O)O)C(=O)NCC(=O)N[C@@H](CCCCN)C(=O)N[C@@H](Cc1ccc(O)cc1)C(=O)N[C@@H](Cc1c[nH]c2ccccc12)C(=O)N[C@@H](CO)C(=O)N[C@@H](CCSC)C(=O)N[C@@H](Cc1ccc(O)cc1)C(=O)N[C@@H](CO)C(=O)N[C@@H](CCCNC(=N)N)C(=O)N[C@@H](CC(C)C)C(=O)N[C@@H](CCCNC(=N)N)C(=O)N[C@@H](CCCCN)C(=O)N[C@@H](CCSC)C(=O)N[C@@H](CC(C)C)C(=O)N[C@@H](Cc1ccc(O)cc1)C(=O)O)[C@@H](C)O [Peptide S2P6]
[1]
  Percent Change in Binding Activity Fetuin: +49 ± 5%
[2]
  Percent Changes in Binding Activity MAL/fetuin: +18 ± 16%
[3]
  Percent Changes in Binding Activity PT/asialo-fetuin: −18(1) Percent
[4]
  Percent Changes in Binding Activity WGA/fetuin: +57 ± 0%
[5]
  Percent Changes in Binding Activity SNA/fetuin: +2 ± 2%
[6]
  Percent Change in Binding Activity Asialofetuin: +18 ± 16%
[7]
  IC50: 220 ± 60 µM
  Percent Changes in Binding Activity PT/fetuin: −28 ± 6%

## AGFIYRETFCITTIYKTGQPAADHYYSKVTA [Peptide S3P4]
[1]
  Percent Change in Binding Activity Fetuin: +55 ± 26%
[2]
  Percent Changes in Binding Activity MAL/fetuin: +7 ± 1%
[3]
  Percent Changes in Binding Activity PT/asialo-fetuin: +75 ± 50%
[4]
  Percent Changes in Binding Activity WGA/fetuin: +13 ± 1%
[5]
  Percent Changes in Binding Activity SNA/fetuin: +1(1) Percent
[6]
  Percent Change in Binding Activity Asialofetuin: +26 ± 2%
[7]
  Percent Changes in Binding Activity PT/fetuin: +12 ± 2%

## Ac-PQEQITQHGSPYGRC-NH2 [ACS2P1]
[2]
  Percent Changes in Binding Activity MAL/fetuin: +16 ± 9%
[3]
  Percent Changes in Binding Activity PT/asialo-fetuin: +190 ± 23%
[6]
  Percent Change in Binding Activity Asialofetuin: +101 ± 2%
[7]
  Percent Changes in Binding Activity PT/fetuin: +89 ± 3%

## CASPYEGRYRDMYDALRRLLY [Peptide S3P5]
[1]
  Percent Change in Binding Activity Fetuin: −19 ± 4%
[2]
  Percent Changes in Binding Activity MAL/fetuin: +3 ± 6%
[3]
  effect on PT-biotin binding to asialofetuin, in words: reduce binding of PT to asialofetuin only; also recorded: inhibit PT-biotin's interaction with asialofetuin in a concentration-dependent manner
  Percent Changes in Binding Activity PT/asialo-fetuin: −26 ± 10%
[3]; wells coated with 3 μg/ml asialofetuin, 2-fold dilutions of peptide in PBS
  IC50 PT-b (asialofetuin): above the solubility limits of the peptide in PBS
[4]
  Percent Changes in Binding Activity WGA/fetuin: +35 ± 8%
[5]
  Percent Changes in Binding Activity SNA/fetuin: 0(1) Percent
[6]
  Percent Change in Binding Activity Asialofetuin: −17 ± 8%
[7]
  Percent Changes in Binding Activity PT/fetuin: +14 ± 6%
